Results reported in patent US20250101436A1, “APTAMERS AND SMALL MOLECULE LIGANDS” (MeiraGTx UK II Limited, priority 2021, published 2025).

The compounds below were run on luciferase gene expression in HEK 293 cells in response to Comp. 004 (assay: Screen of riboswitch constructs with 12C6-1 variant aptamers (libraries N1-N5) against Comp. 004, luciferase in HEK 293 cells). Settings: library N1 (J2-4), HEK 293, 25 M [sic] Comp. 004.
Assay type: cell-based, human
Outline: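 Riboswitch constructs carrying 12C6-1 aptamer variants, randomized in J2-4, J2-3/J3-3a/J3a-2/P3, L3a, J4-5/J5-4/P4 or L5 regions (libraries N1-N5), cloned into an intron-exon-intron cassette driving luciferase. Screened in HEK 293 cells with 25 µM Comp. 004; read-out is fold induction of gene expression versus parent Luci-12C6-1.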
“N1_2H5 (CTGGGGAGTCCTTCATGCGGGGC; chemistry not given here)” was tested, and the “Fold (induction of luciferase gene expression)” value was 1.62 fold. For “N1_2E4 (CTGGGGAGTCCTTCATGCGGGGC; chemistry not given here)”, the “Fold (induction of luciferase gene expression)” value was 10.44 fold. For “N1_2E3 (CTGGGGAGTCCTTCATGCGGGGC; chemistry not given here)”, the “Fold (induction of luciferase gene expression)” value was 5.79 fold. With “N1_2D7 (CTGGGGAGTCCTTCATGCGGGGC; chemistry not given here)” the “Fold (induction of luciferase gene expression)” value was 2.16 fold.

Same assay, conditions: library N5 variant aptamers (L5, X16-X21 randomized) of 12C6-1 in riboswitch constructs; in response to Comp. 004 treatment; HEK 293 cells
For “N5_1C9 (CTGGGGAGTCCT; chemistry not given here)”, the “Fold (induction of luciferase gene expression)” value was 915.3 fold. In the case of “N5_1G9 (CTGGGGAGTCCT; chemistry not given here)”, the “Fold (induction of luciferase gene expression)” value is reported as 1230.3 fold. In the case of “N5_1E8 (CTGGGGAGTCCT; chemistry not given here)”, the “Fold (induction of luciferase gene expression)” value is reported as 691.8 fold. With “N5_1C10 (CTGGGGAGTCCT; chemistry not given here)” the “Fold (induction of luciferase gene expression)” value was 693.8 fold. With “N5_2C5 (CTGGGGAGTCCT; chemistry not given here)” the “Fold (induction of luciferase gene expression)” value was 1055.1 fold. In the case of “N5_8H7 (DNA CTGGGGAGTCCT; chemistry not given here)”, the “Fold (induction of luciferase gene expression)” value is reported as 1218.5 fold.

The compounds below were run on N5-12G6 riboswitch (assay: Firefly luciferase assay, N5-12G6 riboswitch in HEK293 cells). Settings: 12G6 riboswitch, HEK293.
For `CC1CNCCN1c1ccncc1NCc1ccc2nccnc2c1` (stereo not drawn) [compound 015, 4-(2-Methylpiperazin-1-yl)-N-(quinoxalin-6-ylmethyl)pyridin-3-amine], the “regulation of luciferase expression (FIG. 4e)” value was “regulate expression in a dose-dependent fashion”. With `Clc1cncc(NCc2ccc3nccnc3c2)c1N1CCNCC1` [compound 019, 5-Chloro-4-(piperazin-1-yl)-N-(quinoxalin-6-ylmethyl)pyridin-3-amine] the “regulation of luciferase expression (FIG. 4e)” value was “regulate expression in a dose-dependent fashion”.

Same assay, conditions: 12G6 riboswitch, luciferase, HEK293, 2 μM
`Fc1cc(CNc2cncc(Cl)c2N2CCNCC2)cc2nccnc12` [compound 053, 5-chloro-N-((8-fluoroquinoxalin-6-yl)methyl)-4-(piperazin-1-yl)pyridin-3-amine] was tested, and the “Fold induction 2 μM (HEK)” value was 16.8 fold. With `Fc1cc(CNc2cncc(Cl)c2N2CCNCC2)cc2nccnc12` [compound 077, 5-chloro-N-((8-fluoroquinoxalin-6-yl)methyl)-4-(piperazin-1-yl)pyridin-3-amine] the “Fold induction 2 μM (HEK)” value was 43.5 fold.

Same assay, conditions: Homo sapiens, HEK293, read-out: Fold induction 2 μM (HEK), 12G6 riboswitch, luciferase, HEK293, 2 μM
`Clc1cncc(NCc2cc(Cl)c3nccnc3c2)c1N1CCNCC1` [compound 055, 5-chloro-N-((8-chloroquinoxalin-6-yl)methyl)-4-(piperazin-1-yl)pyridin-3-amine] was tested, and the fold induction at 2 µM was 4.1. `C[C@@H]1CNCCN1c1c(Cl)cncc1NCc1ccc2nccnc2c1` [compound 026, (R)-5-Chloro-4-(2-methylpiperazin-1-yl)-N-(quinoxalin-6-ylmethyl)pyridin-3-amine] showed a fold induction at 2 µM of 27.2. With `Fc1cc(CNc2cnccc2OC2CNC2)cc2nccnc12` [compound 028, 4-(Azetidin-3-yloxy)-N-((8-fluoroquinoxalin-6-yl)methyl)pyridin-3-amine] the fold induction at 2 µM was 33. Compound `Fc1cc2nccnc2cc1CNc1cnccc1N1CCCNCC1` [compound 090, 4-(1,4-diazepan-1-yl)-N-((7-fluoroquinoxalin-6-yl)methyl)pyridin-3-amine] has a fold induction at 2 µM of 15. Compound `Fc1cc(CNc2cnccc2O[C@@H]2CCNC2)cc2nccnc12` [compound 105, (R)—N-((8-fluoroquinoxalin-6-yl)methyl)-4-(pyrrolidin-3-yloxy)pyridin-3-amine] has a fold induction at 2 µM of 37.7. Work on `Fc1cc(N2CCNCC2)c(NCc2ccc3nccnc3c2)cn1` [compound 024, 6-Fluoro-4-(piperazin-1-yl)-N-(quinoxalin-6-ylmethyl)pyridin-3-amine] yielded a fold induction at 2 µM of 35.1. With `Fc1cncc(NCc2ccc3nccnc3c2)c1N1CCNCC1` [compound 073, 5-fluoro-4-(piperazin-1-yl)-N-(quinoxalin-6-ylmethyl)pyridin-3-amine] the fold induction at 2 µM was 43.9. `FC(F)(F)c1cc(N2CCNCC2)c(NCc2ccc3nccnc3c2)cn1` [compound 117, 4-(piperazin-1-yl)-N-(quinoxalin-6-ylmethyl)-6-(trifluoromethyl)pyridin-3-amine] gave a fold induction at 2 µM of 30.6. For `Fc1cc2nccnc2cc1CNc1cncc(Cl)c1N1CCNCC1` [compound 052, 5-chloro-N-((7-fluoroquinoxalin-6-yl)methyl)-4-(piperazin-1-yl)pyridin-3-amine], the fold induction at 2 µM was 18.9. Work on `Fc1cncc(NCc2cc3nccnc3cc2Cl)c1N1CCNCC1` [compound 083, N-((7-chloroquinoxalin-6-yl)methyl)-5-fluoro-4-(piperazin-1-yl)pyridin-3-amine] yielded a fold induction at 2 µM of 12.8. Compound `Fc1cncc(NCc2cc3nccnc3cc2Cl)c1N1CCCNCC1` [compound 096, N-((7-chloroquinoxalin-6-yl)methyl)-4-(1,4-diazepan-1-yl)-5-fluoropyridin-3-amine] has a fold induction at 2 µM of 16.2. `Fc1cncc(NCc2cc(Cl)c3nccnc3c2)c1N1CCNCC1` [compound 081, N-((8-chloroquinoxalin-6-yl)methyl)-5-fluoro-4-(piperazin-1-yl)pyridin-3-amine] gave a fold induction at 2 µM of 3.9. Compound `Fc1cc(CNc2cncc(Cl)c2O[C@@H]2CCNC2)cc2nccnc12` [compound 119, (R)-5-chloro-N-((8-fluoroquinoxalin-6-yl)methyl)-4-(pyrrolidin-3-yloxy)pyridin-3-amine] has a fold induction at 2 µM of 32.5. Work on `COc1cc(CNc2cnccc2N2CCNCC2)cc2nccnc12` [compound 071, N-((8-methoxyquinoxalin-6-yl)methyl)-4-(piperazin-1-yl)pyridin-3-amine] yielded a fold induction at 2 µM of 6.1. `Cc1cncc(NCc2ccc3nccnc3c2)c1N1CCNCC1` [compound 023, 5-Methyl-4-(piperazin-1-yl)-N-(quinoxalin-6-ylmethyl)pyridin-3-amine] gave a fold induction at 2 µM of 67.4. Compound `Clc1cc(CNc2cnccc2O[C@@H]2CCNC2)cc2nccnc12` [compound 106, (R)—N-((8-chloroquinoxalin-6-yl)methyl)-4-(pyrrolidin-3-yloxy)pyridin-3-amine] has a fold induction at 2 µM of 22.2. Work on `C[C@@H]1CNCCN1c1ccncc1NCc1cc(Cl)c2nccnc2c1` [compound 066, (R)—N-((8-chloroquinoxalin-6-yl)methyl)-4-(2-methylpiperazin-1-yl)pyridin-3-amine] yielded a fold induction at 2 µM of 2. Work on `Cc1c(CNc2cnccc2N2CCNCC2)cc2nccnc2c1C` [compound 070, N-((7,8-dimethylquinoxalin-6-yl)methyl)-4-(piperazin-1-yl)pyridin-3-amine] yielded a fold induction at 2 µM of 2.9. With `Cc1cncc(NCc2cc3nccnc3cc2Cl)c1N1CCNCC1` [compound 087, N-((7-chloroquinoxalin-6-yl)methyl)-5-methyl-4-(piperazin-1-yl)pyridin-3-amine] the fold induction at 2 µM was 20.9. In the case of `Clc1cncc(NCc2ccc3nccnc3c2)c1N1CCNCC1` [compound 019, 5-Chloro-4-(piperazin-1-yl)-N-(quinoxalin-6-ylmethyl)pyridin-3-amine], the fold induction at 2 µM is reported as 60.2. For `Cc1cncc(NCc2cc(Cl)c3nccnc3c2)c1N1CCNCC1` [compound 085, N-((8-chloroquinoxalin-6-yl)methyl)-5-methyl-4-(piperazin-1-yl)pyridin-3-amine], the fold induction at 2 µM was 5.4. In the case of `c1cnc2cc(CNc3cnc4[nH]ccc4c3N3CCNCC3)ccc2n1` [compound 114, 4-(piperazin-1-yl)-N-(quinoxalin-6-ylmethyl)-1H-pyrrolo[2,3-b]pyridin-5-amine], the fold induction at 2 µM is reported as 60.1. For `Fc1cc2nccnc2cc1CNc1cnccc1O[C@@H]1CCNC1` [compound 107, (R)—N-((7-fluoroquinoxalin-6-yl)methyl)-4-(pyrrolidin-3-yloxy)pyridin-3-amine], the fold induction at 2 µM was 48.7. In the case of `Clc1cc2nccnc2cc1CNc1cnccc1O[C@@H]1CCNC1` [compound 108, (R)—N-((7-chloroquinoxalin-6-yl)methyl)-4-(pyrrolidin-3-yloxy)pyridin-3-amine], the fold induction at 2 µM is reported as 37.5. `Cc1cncc(NCc2ccc3nccnc3c2)c1OC1CNC1` [compound 113, 4-(azetidin-3-yloxy)-5-methyl-N-(quinoxalin-6-ylmethyl)pyridin-3-amine] was tested, and the fold induction at 2 µM was 31.9. Work on `Fc1cncc(NCc2cc(F)c3nccnc3c2)c1N1CCCNCC1` [compound 095, 4-(1,4-diazepan-1-yl)-5-fluoro-N-((8-fluoroquinoxalin-6-yl)methyl)pyridin-3-amine] yielded a fold induction at 2 µM of 8.9. In the case of `Clc1cc2nccnc2cc1CNc1cnccc1N1CCCNCC1` [compound 091, N-((7-chloroquinoxalin-6-yl)methyl)-4-(1,4-diazepan-1-yl)pyridin-3-amine], the fold induction at 2 µM is reported as 28.4. Compound `Clc1cc(CNc2cnccc2N2CCCNCC2)cc2nccnc12` [compound 089, N-((8-chloroquinoxalin-6-yl)methyl)-4-(1,4-diazepan-1-yl)pyridin-3-amine] has a fold induction at 2 µM of 4.8.

Same assay, conditions: Homo sapiens, HEK293, read-out: Fold induction 25 μM (HEK), 12G6 riboswitch, luciferase, HEK293, 25 μM
`c1cc(NC2CCNCC2)c(NCc2ccc3nccnc3c2)cn1` [compound 034, N^4-(piperidin-4-yl)-N^3-(quinoxalin-6-ylmethyl)pyridine-3,4-diamine] was tested, and the fold induction at 25 µM was 53.2. With `CN(c1ccncc1NCc1ccc2nccnc2c1)C1CCNC1` (stereo not drawn) [compound 035, N^4-methyl-N^4-(pyrrolidin-3-yl)-N^3-(quinoxalin-6-ylmethyl)pyridine-3,4-diamine] the fold induction at 25 µM was 86.4. `CC1CNCCN1c1ccncc1NCc1ccc2nccnc2c1` (stereo not drawn) [compound 015, 4-(2-Methylpiperazin-1-yl)-N-(quinoxalin-6-ylmethyl)pyridin-3-amine] gave a fold induction at 25 µM of 329. In the case of `c1cc(N2CC3CC2CN3)c(NCc2ccc3nccnc3c2)cn1` (stereo not drawn) [compound 030, 4-(2,5-diazabicyclo[2.2.1]heptan-2-yl)-N-(quinoxalin-6-ylmethyl)pyridin-3-amine], the fold induction at 25 µM is reported as 82.9. `FC(F)(F)C1CN(c2ccncc2NCc2ccc3nccnc3c2)CCN1` (stereo not drawn) [compound 036, N-(quinoxalin-6-ylmethyl)-4-(3-(trifluoromethyl)piperazin-1-yl)pyridin-3-amine] gave a fold induction at 25 µM of 8.2. In the case of `Clc1cncc(NCc2ccc3nccnc3c2)c1N1CCNCC1` [compound 019, 5-Chloro-4-(piperazin-1-yl)-N-(quinoxalin-6-ylmethyl)pyridin-3-amine], the fold induction at 25 µM is reported as 453.
